What all share (type): biochemical
One assay deals with T1, EbPPK (Erysipelotrichaceae bacterium, UniProt P0DY74).
T1 construct: gene DHS57_05705; synthesized gene expressed in E. coli BL21(DE3) from pXMJ-19, Ni-NTA purified
T1 sequence (P0DY74 1-298): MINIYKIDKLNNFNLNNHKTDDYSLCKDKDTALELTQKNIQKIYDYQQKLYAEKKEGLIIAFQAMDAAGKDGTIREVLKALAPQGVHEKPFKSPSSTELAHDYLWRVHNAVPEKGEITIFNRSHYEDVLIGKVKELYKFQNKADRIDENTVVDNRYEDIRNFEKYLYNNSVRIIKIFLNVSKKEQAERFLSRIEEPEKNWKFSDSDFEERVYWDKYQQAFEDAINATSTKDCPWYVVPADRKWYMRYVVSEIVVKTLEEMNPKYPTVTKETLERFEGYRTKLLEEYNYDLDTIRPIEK
As to the kind of experiment: coupled hexokinase / G6PD assay, […] nm. The following applies: 100 mM Tris-HCl pH 8.0, 35 °C.

The target of another assay is T2, PaPPK2II (Pseudomonas aeruginosa, UniProt Q9I154).
T2 construct: gene PA2428; expressed in E. coli BL21(DE3) from pET-28a, Ni-NTA purified
T2 sequence (Q9I154 1-304): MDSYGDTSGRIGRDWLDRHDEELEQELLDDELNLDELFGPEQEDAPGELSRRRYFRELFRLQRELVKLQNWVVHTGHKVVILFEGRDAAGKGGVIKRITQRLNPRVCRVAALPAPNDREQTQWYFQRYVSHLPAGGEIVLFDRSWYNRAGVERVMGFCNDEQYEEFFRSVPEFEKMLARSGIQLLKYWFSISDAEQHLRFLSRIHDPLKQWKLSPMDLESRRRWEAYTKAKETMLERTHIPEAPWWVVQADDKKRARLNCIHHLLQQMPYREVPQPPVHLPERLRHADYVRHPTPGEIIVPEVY
As to the kind of experiment: coupled hexokinase / G6PD assay, […] nm. The following applies: 100 mM Tris-HCl pH 8.0, 35 °C, 10 mM ADP, 50 mM polyP6, 25 mM MgCl2.

For the next assay, the target named is T3, PaPPK2III (Pseudomonas aeruginosa, UniProt Q9HYF1).
T3 construct: gene PA3455; expressed in E. coli BL21(DE3) from pET-28a, Ni-NTA purified
T3 sequence (Q9HYF1 1-496): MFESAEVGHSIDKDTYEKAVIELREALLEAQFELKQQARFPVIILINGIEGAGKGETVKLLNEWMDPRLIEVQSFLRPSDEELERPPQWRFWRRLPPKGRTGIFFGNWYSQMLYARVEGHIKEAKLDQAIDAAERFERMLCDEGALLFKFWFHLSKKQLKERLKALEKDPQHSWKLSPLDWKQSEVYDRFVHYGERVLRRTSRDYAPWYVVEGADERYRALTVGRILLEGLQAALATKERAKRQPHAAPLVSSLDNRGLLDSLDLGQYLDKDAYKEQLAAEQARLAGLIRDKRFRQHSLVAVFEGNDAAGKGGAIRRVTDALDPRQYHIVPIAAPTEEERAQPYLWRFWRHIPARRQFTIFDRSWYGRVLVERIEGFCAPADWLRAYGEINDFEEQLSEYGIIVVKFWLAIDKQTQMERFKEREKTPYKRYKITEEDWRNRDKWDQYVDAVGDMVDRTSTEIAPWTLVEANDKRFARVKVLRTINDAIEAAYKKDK
Briefly: coupled hexokinase / G6PD assay, […] nm. The following applies: 100 mM Tris-HCl pH 8.0, 35 °C, 10 mM ADP, 50 mM polyP6, 25 mM MgCl2.

A further assay has as its target T4, GS (Corynebacterium glutamicum, UniProt H7C697).
T4 construct: gene glnA; expressed in E. coli BL21(DE3), Ni-NTA purified
T4 sequence (H7C697 1-477): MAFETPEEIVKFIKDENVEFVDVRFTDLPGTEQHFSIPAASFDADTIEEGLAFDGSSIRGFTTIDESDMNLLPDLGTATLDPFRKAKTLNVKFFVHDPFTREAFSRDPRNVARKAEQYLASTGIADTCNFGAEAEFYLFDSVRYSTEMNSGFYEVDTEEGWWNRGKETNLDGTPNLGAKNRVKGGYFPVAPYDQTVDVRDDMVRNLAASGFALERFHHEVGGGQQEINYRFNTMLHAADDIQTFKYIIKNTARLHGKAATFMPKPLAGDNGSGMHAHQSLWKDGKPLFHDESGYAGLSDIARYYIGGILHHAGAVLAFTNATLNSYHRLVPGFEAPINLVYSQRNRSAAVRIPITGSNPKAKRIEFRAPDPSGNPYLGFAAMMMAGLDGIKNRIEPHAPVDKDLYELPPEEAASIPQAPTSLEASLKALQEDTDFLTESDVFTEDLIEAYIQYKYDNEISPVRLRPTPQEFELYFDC
Briefly: L-glutamine production, HPLC with OPA derivatization. The following applies: Tris-HCl pH 8.0, 37 °C, 100 mM (NH4)2SO4, 150 mM ATP, 50 mM MgCl2.

Assay [1] has as its target T5, ChPPK (Cytophaga hutchinsonii, UniProt A0A6N4SMB5).
T5 construct: gene CHU_0107; synthesized gene expressed in E. coli BL21(DE3) from pXMJ-19, Ni-NTA purified
T5 sequence (A0A6N4SMB5 1-305): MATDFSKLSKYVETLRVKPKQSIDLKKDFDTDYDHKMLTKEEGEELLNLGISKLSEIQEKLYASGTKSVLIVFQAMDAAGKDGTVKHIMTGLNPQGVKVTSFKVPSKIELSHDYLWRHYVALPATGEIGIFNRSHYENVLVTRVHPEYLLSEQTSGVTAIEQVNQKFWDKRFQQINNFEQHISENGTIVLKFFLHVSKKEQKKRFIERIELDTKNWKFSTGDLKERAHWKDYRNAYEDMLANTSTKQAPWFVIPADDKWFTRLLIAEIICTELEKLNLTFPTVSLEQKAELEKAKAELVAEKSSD
Briefly: coupled hexokinase / G6PD assay, […] nm, double reciprocal plot. The following applies: 100 mM Tris-HCl pH 8.0, 35 °C, MgCl2; polyP6 1 to 7.5 mM, ADP as co-substrate.

For assay [2], the target named is T6, ChPPK (Cytophaga hutchinsonii, UniProt A0A6N4SMB5, D82N).
T6 construct: gene CHU_0107; synthesized gene expressed in E. coli BL21(DE3) from pXMJ-19, Ni-NTA purified
Described as above. Particulars: 100 mM Tris-HCl pH 8.0, 35 °C, MgCl2; polyP6 1 to 7.5 mM, ADP as co-substrate.

Assay [3] has as its target T7, ChPPK (Cytophaga hutchinsonii, UniProt A0A6N4SMB5, K103E).
T7 construct: gene CHU_0107; synthesized gene expressed in E. coli BL21(DE3) from pXMJ-19, Ni-NTA purified
The assay is described as above. The following applies: 100 mM Tris-HCl pH 8.0, 35 °C, MgCl2; polyP6 1 to 7.5 mM, ADP as co-substrate.

T7 sequence (A0A6N4SMB5 entry or part of it K103E): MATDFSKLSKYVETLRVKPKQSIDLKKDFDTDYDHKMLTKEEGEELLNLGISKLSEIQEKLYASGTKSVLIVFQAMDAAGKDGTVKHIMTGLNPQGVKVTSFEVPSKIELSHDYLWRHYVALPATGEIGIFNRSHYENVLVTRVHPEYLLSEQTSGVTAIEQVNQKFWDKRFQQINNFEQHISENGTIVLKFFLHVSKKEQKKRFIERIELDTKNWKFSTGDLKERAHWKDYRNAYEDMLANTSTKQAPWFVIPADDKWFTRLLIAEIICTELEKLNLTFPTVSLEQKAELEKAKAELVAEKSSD
T6 sequence (A0A6N4SMB5 entry or part of it D82N): as the sequence (A0A6N4SMB5 entry or part of it K103E) above, with D82N, E103K counted along it

Turning to `Nc1ncnc2c1ncn2[C@@H]1O[C@H](COP(=O)(O)OP(=O)(O)O)[C@@H](O)[C@H]1O` [ADP], the “coupled hexokinase / G6PD assay, 340 nm” value was “polyP3, polyP6 and polyPn were carried out to show the specific activities” on EbPPK (10 mM ADP, 50 mM polyP6, 25 mM MgCl2); “the specific activities of the seven PPK enzymes” on PaPPK2II; “the specific activities of the seven PPK enzymes” at PaPPK2III.

Take `Nc1ncnc2c1ncn2[C@@H]1O[C@H](COP(=O)(O)O)[C@@H](O)[C@H]1O` [AMP]: the “coupled hexokinase / G6PD assay, 340 nm” value at EbPPK (10 mM AMP, polyP6, 25 mM MgCl2) is “EbPPK was capable of the best catalytic efficiency for converting AMP”.

As to `N[C@@H](CCC(=O)O)C(=O)O` [L-glutamate], the “L-glutamine production, HPLC with OPA derivatization” value at GS was “We performed glutamine production from glutamate with GS enzyme”.

What is called Km is the concentration of substrate that gives half-maximal velocity. For polyP6, the Km was 2.3 ± 0.02 mM on ChPPK [1], 2.12 ± 0.01 mM on ChPPK [2] and 2.24 ± 0.02 mM at ChPPK [3].

The record behind these values is publication PMC10401862, “A high-throughput dual system to screen polyphosphate kinase mutants for efficient ATP regeneration in L-theanine biocatalysis” (Biotechnology for Biofuels and Bioproducts, 2023).
